From patent US20150359789A1, “METHODS FOR TREATING PRURITUS” (TREVI THERAPEUTICS, INC., priority 2014, published 2015)
Counter-ions that a name gives are not always drawn.

Experiment: Oral pharmacokinetics of nalbuphine HCl solution versus tablets, fed and fasted, across studies
Details: human, plasma

Question: What does the source list for Oc1ccc2c3c1O[C@H]1[C@@H](O)CC[C@@]4(O)[C@@H](C2)N(CC2CCC2)CC[C@]314 [nalbuphine, 17-(cyclobutylmethyl)-4,5α-epoxymorphinan-3,6α,14-triol, hydrochloride]?
Answer: Tmax: 0.5 to 1 h; half-life: 6.87 to 6.99 h
